Experimental data published in paper PMC8832557 (Cell Metabolism, 2022).
Where two headings read alike, the source gives them in different places.

Assays:
[1] = biological target: T1, ACE2 (angiotensin-I converting enzyme 2) (Homo sapiens, UniProt Q9BYF1); test: SPR; type: binding
[2] = biological target: T1, ACE2 (angiotensin-I converting enzyme 2); test: SPR; type: binding; remark: listed apart in the source

T1 sequence (Q9BYF1 18-805): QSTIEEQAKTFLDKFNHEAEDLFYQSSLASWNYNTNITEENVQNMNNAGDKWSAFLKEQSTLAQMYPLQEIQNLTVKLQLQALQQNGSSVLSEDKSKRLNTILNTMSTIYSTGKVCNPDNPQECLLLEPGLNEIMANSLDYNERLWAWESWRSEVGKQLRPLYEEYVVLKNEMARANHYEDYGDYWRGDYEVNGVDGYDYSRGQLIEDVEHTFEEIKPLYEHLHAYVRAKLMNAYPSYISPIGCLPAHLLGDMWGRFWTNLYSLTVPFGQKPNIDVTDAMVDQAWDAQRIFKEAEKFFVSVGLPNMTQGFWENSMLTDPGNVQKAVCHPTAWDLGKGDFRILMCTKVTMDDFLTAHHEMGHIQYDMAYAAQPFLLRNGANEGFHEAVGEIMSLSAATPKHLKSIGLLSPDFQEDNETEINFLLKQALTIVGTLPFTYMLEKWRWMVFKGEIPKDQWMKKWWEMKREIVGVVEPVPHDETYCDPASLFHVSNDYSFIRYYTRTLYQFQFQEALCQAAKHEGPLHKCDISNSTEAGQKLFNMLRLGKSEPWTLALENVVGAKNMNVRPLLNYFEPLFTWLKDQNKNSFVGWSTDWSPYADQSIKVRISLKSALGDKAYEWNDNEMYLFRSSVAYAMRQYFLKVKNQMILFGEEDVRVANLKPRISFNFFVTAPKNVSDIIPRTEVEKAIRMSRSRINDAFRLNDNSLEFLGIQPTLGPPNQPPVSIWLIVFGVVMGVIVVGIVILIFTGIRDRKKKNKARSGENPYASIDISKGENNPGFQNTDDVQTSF

SMILES | Kd [1] [µM] | Kd [2] [µM]
N=C(N)c1ccc(/N=N/Nc2ccc(C(=N)N)cc2)cc1 [DIZE, diminazene aceturate] | 4.9 | –
C[C@]1(OC(=O)/C=C/c2ccccc2)C[C@@H](O)[C@]2(O)C=CO[C@@H](O[C@@H]3O[C@H](CO)[C@@H](O)[C@H](O)[C@H]3O)[C@@H]21 [Har, harpagoside] | – | 86.1
Cc1ccc(NC(=O)c2ccc(CN3CCN(C)CC3)cc2)cc1Nc1nccc(-c2cccnc2)n1 [Ima, imatinib] | – | 12.7
CC(=O)/N=c1/sc(S(N)(=O)=O)nn1C [Met, methazolamide] | – | 70
